# According to US20090285899A1, “COMBINATION OF DEHYDROEPIANDROSTERONE OR DEHYDROEPIANDROSTERONE-SULFATE WITH A METHYLXANTHINE DERIVATIVE FOR TREATMENT OF ASTHMA OR CHRONIC OBSTRUCTIVE PULMONARY DISEASE” (priority 2003, published 2009):
# Where “and” joins values, the source holds several entries; their conditions need not be identical. Equal entries are not always repeated. Where two headings read alike, the source gives them in different places.
# Tests used:
# Intracellular adenosine = assay type: in vivo, rat
# Method: Folinic acid (50 mg/kg) was administered intraperitoneally once daily for fourteen days. […] Hearts were removed from animals and flash frozen in liquid nitrogen with 10 s of death. Liver and lungs were removed en bloc and flash frozen with […]. Brain tissue was subsequently dissected.
# [1] = Particle size of jet-milled / spray-dried DHEA-S (Malvern Mastersizer X, light microscope); assay type: physicochemical; conditions: double pass through the jet mill
# Method: Approximately 1 g sample was passed through the jet mill, once, and approximately 2 g sample were passed through the jet mill twice. […] The resulting solution was sonicated for 3 minutes and appeared fully dispersed. The dispersed solutions were tested on a Malvern Mastersizer X with a small volume sampler (SVS) attachment. One sample of dispersed material was tested 5 times. The median particle size or D (v, 0.5) of unmilled material was 52.56 μm and the % RSD (relative standard deviation) was 7.61 for the 5 values. The D (v, 0.5) for a single pass through the jet mill was 3.90 μm and the % RSD was 1.27, and the D (v, 0.5) from a double pass through the jet mill […] and the % RSD was 3.10.
# The solution was spray-dried with a B-191 Mini Spray-Drier (Buchi, Flawil, Switzerland) with an inlet temperature of 55° C., outlet temperature of 40° C., at 100% aspirator, at 10% pump, nitrogen flow at 40 mbar and spray flow at 600 units. The spray-dried product was suspended in hexane and Span85 surfactant added to reduce agglomeration. The dispersions were sonicated with cooling for 3-5 minutes for complete dispersion and the dispersed solutions tested on a Malvern Mastersizer X with a Small Volume Sampler (SVS) attachment. […] Visual examination by light microscope of the dispersions of each batch confirmed that spray drying produced small respirable size particles. […]
# HT-29 SF cells [2] = experiment: Reversal of DHEA-mediated growth inhibition; assay type: cell-based, human; conditions: 25 μM DHEA, 48 hours of treatment
# HT-29 SF cells [3] = experiment: Reversal of DHEA effect on cell cycle; assay type: cell-based, human; conditions: 25 FM DHEA
# HT-29 SF cells [4] = experiment: DHEA effect on cell growth; conditions: 12.5-200 μM, 24-72 hours
# Method: Cell cultures, HT-29 SF cells, which represent a subline of HY-29 cells (ATCC, Rockville, Md.) and are adapted for growth in completely defined serum-free PC-1 medium (Ventrex, Portland, Me.), were obtained. Stock cultures were maintained in this medium at 37° C. (in a humidified atmosphere containing 5% CO2).
# HT-29 SF cells [5] = experiment: DHEA effect on cell cycle (flow cytometry); assay type: cell-based, human; conditions: 25-200 μM, 24-72 hours
# Method: Cells were plated at 10^5/60-mm dish in duplicate. […] Cultures were trypsinized following 0, 24, 48, or 74 hours and fixed and stained using a modification of a procedure of Bauer et al., Cancer Res. 46, 3173-3178 (1986). Briefly, cells were collected by centrifugation and resuspended in cold phosphate-buffered saline. Cells were fixed in 70% ethanol, washed, and resuspended in phosphate-buffered saline.
# After 24, 48, and 72 hours, cells were harvested, fixed in ethanol, and stained with propidium iodide, and the DNA content/cell was determined by flow cytometric analysis. The percentage of cells in G1, S, and G2M phases was calculated using the Cellfit cell cycle analysis program. S phase is marked by a quadrangle for clarity. Representative histograms from duplicate determinations are shown. The experiment was repeated three times.
# Solubility of DHEA-S = assay type: physicochemical
# From the text: Inhalation of pure water can produce a cough stimulus. […] The temperature effect is weaker at high NaCl concentrations.
# [6] = Physicochemical testing of DHEA-S dihydrate before and after micronization; conditions: for Water: Karl Fischer
# Method: Surface area is determined using five point BET analyses are performed with nitrogen as the adsorbing gas (P/Po=0.05 to 0.30) using a Micromeritics TriStar surface area analyzer. Particle size distributions are measured by laser diffraction using a Micromeritics Saturn Digisizer where the particles are suspended in mineral oil with sodium dioctyl sodium sulfosuccinate as a dispersing agent. Drug substance water content is measured by Karl Fischer titration (Schott Titroline KF). Pure water is used as the standard and all relative standard deviations for triplicates are less than 1%. Powder is added directly to the titration media.
# [7] = Short-term solution stability of DHEA-S nebulizer formulation; assay type: physicochemical; conditions: 10 mg/mL in 0.12% NaCl, RT (24-26° C.)
# Method: Aliquots of this solution are filled into clear glass vials and stored at RT (24-26° C.) and at 40° C. The samples are checked daily for DHEA-S content, DHEA content, and appearance. For each time point, duplicate samples are withdrawn and diluted from each vial. […] The study is stopped on day three. […] The solution should easily be stable for the day of reconstitution in a clinical trial. The following section describes the aerosol properties of this formulation.
# Human ASM cells = experiment: [3H]-thymidine incorporation (DNA synthesis) in human airway smooth muscle cells; assay type: cell-based; conditions: alone or in combinations
# From the text: Human ASM cells were obtained from the distal trachea of transplant donors in compliance with the University of Pennsylvania's Institutional Review Board. Distal trachealis was dissected free of connective tissue and enzymatically digested to yield approximately 1×10^4 human ASM cells. […] The cells were scraped and placed on filters which were then counted using a beta counter. All experiments were repeated in a minimum of three human ASM cell lines. All conditions per experiment were run with six replicates.
# There are three classes of commonly used anti-asthma medications that alter cAMP concentrations and/or adenosine concentrations. These classes of drugs are: methylxanthines, beta-agonists and phosphodiesterase inhibitors. For each of these drug classes, isobutylmethylxanthine (IBMX) was used as the tool compound to inhibit smooth muscle proliferation.
# [8] = COPD patients, background; cited from earlier work
smiles,measurement,setting,value
"Nc1nc(=O)c2c([nH]1)NCC(CNc1ccc(C(=O)N[C@@H](CCC(=O)O)C(=O)O)cc1)N2C=O (mixture of isomers) [Folinic Acid, Folinic acid]",Effect of folinic acid alone on adenosine levels,Intracellular adenosine; administered alone,increase in adenosine levels for all organs studied
same,Effect of coadministered folinic acid on steroid-mediated adenosine depletion,Intracellular adenosine; coadministration with DHEA or methyltestosterone,completely abrogated steroid-mediated adenosine depletion
"C[C@]12CC[C@H](OS(=O)(=O)[O-])CC1=CC[C@@H]1[C@@H]2CC[C@]2(C)C(=O)CC[C@@H]12.[Na+] [Anhydrous DHEA-S, sodium dehydroepiandrostenone sulfate]","Median particle size D (v, 0.5)",[1],3.25 ™
"CC(C)CCC[C@@H](C)[C@H]1CC[C@H]2[C@@H]3CC=C4C[C@@H](O)CC[C@]4(C)[C@H]3CC[C@]12C [CH, cholesterol]",Effect of supplement on DHEA-induced growth inhibition,HT-29 SF cells [2],no such effect
same,Effect of supplement on DHEA-induced reduction of S phase cells,HT-29 SF cells [3]; 48 hours,very little effect
same,Effect of supplement on DHEA-induced reduction of S phase cells,HT-29 SF cells [3]; 72 hours,no effect
"C[C@]12CC[C@H](O)CC1=CC[C@@H]1[C@@H]2CC[C@]2(C)C(=O)CC[C@@H]12 [DHEA, 3β-hydroxyandrost-5-en-17-one]",Inhibition of growth (in words),HT-29 SF cells [4],time- and dose-dependent inhibition of growth
same,Effect on tissue adenosine (in words),"Intracellular adenosine; rat, in vivo",multi-organ depletion of adenosine
same,Cell cycle effect (in words),HT-29 SF cells [5],produced a G1 block in HT-29 SF cells in a time- and dose-dependent manner
same,Solubility in water (in words),Solubility of DHEA-S; water,insoluble in water
"C[C@]12CC[C@H](OS(=O)(=O)[O-])CC1=CC[C@@H]1[C@@H]2CC[C@]2(C)C(=O)CC[C@@H]12.[Na+] [DHEA-S dihydrate, sodium dehydroepiandrostenone sulfate]",Impurities,[6]; Bulk,No significant peaks
same,Water,[6]; Bulk,8.5 % w/w
same,Impurities,[6]; Micronized,No significant peaks
same,Water,[6]; Micronized,8.4 % w/w
same,Surface area,"[6]; Micronized, five point BET",4.9 m^2/g
"C[C@]12CC[C@H](OS(=O)(=O)[O-])CC1=CC[C@@H]1[C@@H]2CC[C@]2(C)C(=O)CC[C@@H]12.[Na+] [DHEA-S, sodium dehydroepiandrostenone sulfate]",Appearance of solution on storage,[7],a slight precipitate is observed on the third day
same,Estimated DHEA-S concentration in solution,"Solubility of DHEA-S; 15° C., 20 mM Na+, Ksp 1316 mM^2",27.5 mM and 10.7 mg/mL
same,Ksp at 15° C.,Solubility of DHEA-S; interpolated versus reciprocal of absolute temperature,1316 mM^2
same,Effect on smooth muscle proliferation without EGF stimulation (FIG. 18),Human ASM cells,neither IBMX nor DHEA-S alone or in combinations inhibits smooth muscle proliferation
"C[C@@](O)(CCO)CC(=O)O [MVA, mevalonic acid]",Effect of supplement on DHEA-induced growth inhibition,HT-29 SF cells [2],partially overcome
same,Effect of supplement on DHEA-induced reduction of S phase cells,HT-29 SF cells [3]; 48 hours,partially prevented this effect
same,Effect of supplement on DHEA-induced reduction of S phase cells,HT-29 SF cells [3]; 72 hours,not after 72 hours
"C[C@]12CCC(=O)C=C1CC[C@@H]1[C@@H]2CC[C@@]2(C)[C@H]1CC[C@]2(C)O [Methyltestosterone, methyltestosterone]",Effect on tissue adenosine (in words),Intracellular adenosine; daily for two weeks,multi-organ depletion of adenosine
"CC(C)=CCC/C(C)=C/CC/C(C)=C/CC/C=C(\C)CC/C=C(\C)CCC=C(C)C [SQ, squalene]",Effect of supplement on DHEA-induced growth inhibition,HT-29 SF cells [2],no such effect
"Cn1c(=O)c2[nH]cnc2n(C)c1=O [Theophylline, 3,7-dihydro-1,3-dimethyl-1H-purine-2,6-dione]",Serum concentrations required for optimal effects,[8],15000 to 20000 ng/mL
